Assay results: PMC8238948, “Potent inhibitors of toxic alpha-synuclein identified via cellular time-resolved FRET biosensors” (NPJ Parkinson's Disease, 2021)
“Also recorded” adds a separate entry of the source.

Key:
[1] = target: T1, αSN (15 μM monomeric αSN doped with 5% αSN PFF seeds) (Homo sapiens, UniProt P37840); test: Seeded Thioflavin-T aggregation assay; format: biochemical; settings: 15 μM αSN monomer + 5% PFF; for IC50: 37 °C, max ThT intensity
T1 construct: made in house; host or cells: Escherichia coli BL21(DE3), T7-7 plasmid
Procedure: Figure 11 and Supplementary Fig. 23 present results from a dose-response-seeded aggregation assay. Vehicle, control, and hit compounds were incubated with 15 µM αSN(m), doped with 5% freshly sonicated αSN PFF in PBS under mild agitation (Supplementary Fig. 23a). […] Titration of control and hit compounds were run in triplicate; representative traces of hit compounds are illustrated in Fig. 11a with a full summary of each titration detailed in Supplementary Fig. 23c–h. IC50 was determined for each compound by determining the max ThT intensity for each concentration (Fig. 11b).
Seeded ThT aggregation assay was performed using 15 μM monomeric αSN doped with 5% (0.75 μM sonicated αSN pre-formed fibril (PFF) seeds) in a 384-well plate under slow agitation (300 RPM) at 37 °C. a Control samples for the aggregation include PBS (black), αSN monomer (brown), 5% αSN PFF (red), and the 15 μM monomer+5% PFF mixture (orange). Dose-response curves were made with a titration of compounds. […] In contrast, RO and DEM both show potent effects relative to Baicalin and EGCG controls. BAY does have some response, but it lags behind other hit compounds. b Normalizing the initial peak in ThT data allows us to estimate an IC50 for each hit. […] Although there is a small trend with BAY, the data cannot be fit to resolve an IC50.
ThT (Sigma, product no. T3516) was dissolved in PBS buffer and was filtered through a 0.2-µm syringe filter to make a stock solution of 2.5 mM. Working ThT concentration was 20 µM. PFF seeds were produced via constant agitation of 1000 RPM at 37 °C (ThermoMixer-C, Eppendorf, Hauppauge, NY) of 500 µL of 350 µM αSN in PBS in a 2 mL tube for 5 days. PFFs were aliquoted and flash frozen and stored at −80 °C until further use. PFF seeds were rapidly thawed, diluted to 35 µM in PBS, and sonicated 120 pulses at 50% using a probe-tip sonicator following the established protocols. Master mix samples for each of the different ThT assays were prepared and dispensed in triplicate as 50 µL in 384-well flat, black-bottom polypropylene plates (PN 781209, Greiner Bio-One) and sealed with fluorescently transparent film. Conditions for non-seeded, seeded, and cell homogenate assays varied slightly.
Seeded ThT experiments were performed at a lower monomer concentration to preclude spontaneous αSN aggregation during the time course of the experiment. For both seeded and cell homogenate experiments, sample were prepared in PBS + 20 µM ThT with or without 15 µM αSN(m) +/− 5% PFF (0.75 µM). Additional control samples of 15 µM PFF and 0.75 µM PFF were also prepared. All empty wells were filled with PBS for a thermal sink and to help prevent evaporation. Assay plates were prepared as pre-cellular FRET dose response above. Dose response was done across 8 concentrations (10 nM to 50 µM). The assay was run at 37 °C with mild shaking (200 RPM) in a Cytation3 plate reader. The ThT fluorescence was monitored with excitation filter of 450 nm and emission filter of 490 nm. Readings were acquired every 20 min for a minimum of 24 h. Seeded ThT aggregation IC50 values were determined by first normalizing all ThT curves to the maximal signal at plateau for the αSN + 5% PFF + DMSO samples. The normalized fluorescence at each concentration was fit to the Hill equation to resolve an effective IC50 of seeded aggregation inhibition.

[2] = target: T2, WT αSN oligomer (inter-protomeric) FRET biosensor in HEK293 cells (Homo sapiens, UniProt P37840); test: FLT dose response, WT oligomer (inter-protomeric) FRET biosensor; format: cell-based; settings: 1 nM to 50 μM
T2 construct: In addition to full-length αSN fusion constructs, we observe both C-terminally and N-terminally truncated αSN species; expressed in transfected cells; host or cells: HEK293
Procedure: (§1) Hits from the pilot HTS of the LOPAC library were selected and dispensed into 384-well plates to verify reproducible and specific FLT trends using the WT and A53T oligomer (inter-protomeric) FRET biosensors. Figure 6 presents a subset of these dose-response curves for hit compounds RO, BAY, SB206553, and DEM, along with known control compound EGCG. […] Assay quality was determined by Z′ (Eq. 2) where a Z′ > 0.5 indicates good assay quality. Using EGCG as control compound and the hit DEM, we calculated Z′ value of 0.76 and 0.66, respectively, indicating excellent assay quality.
(§2) Fig. 6 FRET dose response of pilot HTS hits. A subset of hits were evaluated using both WT (a) and A53T (b) oligomer biosensor to verify both increased FLT (disrupting αSN–αSN interactions) and decreased FLT (tighter aggregation or remodeled oligomers).
(§3) Compounds were tested in a FLT dose-response assay. The compound was dissolved to 10 mM in DMSO, then serially diluted in 96-well mother plates. Each hit was re-screened for FLT dose response across eight concentrations (1 nM to 50 μM). Compounds (0.5 μL) were transferred from mother plates into assay plates using a Mosquito HV liquid handler (TTP Labtech Ltd, UK). The preparations for αSN FRET biosensors were carried out as above.

[3] = target: T3, A53T αSN oligomer (inter-protomeric) FRET biosensor in HEK293 cells (Homo sapiens, UniProt P37840, A53T); test: FLT dose response, A53T oligomer (inter-protomeric) FRET biosensor; format: cell-based; settings: 1 nM to 50 μM
T3 construct: In addition to full-length αSN fusion constructs, we observe both C-terminally and N-terminally truncated αSN species; expressed in transfected cells; host or cells: HEK293
Procedure: as §1, §2, §3

[4] = target: T4, intra-protomeric αSN biosensor (GFP-αSN-RFP) in HEK293 cells (Homo sapiens, UniProt P37840); test: FRET response on intra-protomeric αSN biosensor; format: cell-based; settings: 10 µM
T4 construct: In addition to full-length αSN fusion constructs, we observe both C-terminally and N-terminally truncated αSN species; expressed in transfected cells; host or cells: HEK293
Procedure: Hits were also evaluated with the intra-protomeric αSN and control, non-specific biosensors. […] The compounds RO, BAY, and DEM as well as the control EGCG each reduced FRET, indicating either reduction in oligomerization or expanded oligomer conformation. Tests of these compounds in two control biosensor systems (GFP/RFP at 1:8 and GFP-linker32-RFP; see Supplementary Fig. 13a, b, respectively) show no significant FRET change.
Fig. 7 FRET response to pilot HTS hits on intra-protomeric αSN biosensor. […] With both donor and acceptor XFP fused to one construct, this biosensor is sensitive to both oligomer formation as well as conformation. […] Experiments were performed with n = 3; *p < 0.05, **p < 0.01, ***p < 0.001, ns indicates no significant difference as determined by Student’s t test.

αSN oligomers = target: T5, αSN oligomers (Homo sapiens, UniProt P37840); test: ThT content (β-sheet) of αSN oligomers after oligomerization assay; format: biochemical; settings: 70 μM compound (1:5 compound:monomer), 12 h oligomerization; vs DMSO
T5 construct: made in house; host or cells: Escherichia coli BL21(DE3), T7-7 plasmid
Procedure: To explore the presence of β-sheet content in these oligomers, an aliquot was removed prior to cross-linking, diluted into 100 μM ThT working solution, and ThT fluorescence was monitored to detect the presence of β-sheet. Supplementary Fig. 22 presents each sample ThT content normalized to the PFF signal. We observed an increased ThT content in the αSN oligomers (αS-O) that was not affected by DMSO (vehicle) treatment.
A 10-μL aliquot from each sample was taken and diluted with 290 μL ThT working solution (100 μM ThT in PBS) and dispensed into 3 wells of a 384-well, black opaque plate. Additional samples of PBS, αSN(m), and αSN PFF were used as controls. Plates were incubated at ambient temperature for 10 min and then fluorescence read at 450ex/490em on a Spectromax-i3x (Molecular Devices).
Supplemental Figure 22. Characterization of β-sheet content in αSN oligomers due to hit compound
After the 12-hour oligomerization assay aliquots of each sample were
removed and diluted in 100μM ThT and fluorescence read in triplicate (450ex/490em) in 384-well plates. The
ThT signal was normalized to a signal from previously frozen αSN PFF aliquots. After completion of the
PFF, green bar) and the ThT signal was not affected by DMSO (red bar). Oligomerization in the presence of
control compounds, EGCG and Baicalin, at 70μM (a sub-stoichiometric,1:5 compound: monomer ratio)
Our hit compounds RO, DEM, and BAY had differential effects with
both DEM and BAY resulting in increased ThT content and RO not producing a significant change relative to
(1 picture or pasted object on this page, not shown here)

[5] = test system: inter-protomeric and intra-protomeric αSN FRET biosensors in HEK293 cells; test: Pilot HTS of the LOPAC library, fluorescence lifetime (FLT) of cellular αSN FRET biosensors; format: cell-based, human; settings: 10 µM compound, 90 min; hit = FLT change >5 SD
Procedure: Prior to each pilot HTS, FLT and emission spectrum were measured to verify signal level, basal FRET, coefficient of variance (CV), and similarity index. For each HTS, cells were dispensed into compound plates—1536-well (10 µL/well)—and incubated with the compounds (10 µM) or dimethyl sulfoxide (DMSO; 1%) for 90 min. FLT measurements were acquired with the FLT-PR. After deconvolving the instrument response function, a single exponential fit was used to determine the FLT for both the αSN cellular FRET biosensor (τDA) and the donor-only control biosensor (τD). FRET efficiency was determined by Eq. 1. CV was determined from control plates (N = 384 wells).
Fluorescent compounds (FC) were flagged using a spectral similarity index filter, which evaluates the ratio of intensity from two bandwidths that span the donor emission spectrum and are excluded as potential false positives[45],[46],[49],[51],[66]. […] Compounds that changed FLT by >5 standard deviations (SD) were considered hits (Fig. 5, red data points).
On each day of screening, the compound plates were equilibrated to room temperature (RT; 25 °C). The cells were harvested from the 100-mm plates by incubating with TrypLE (Invitrogen) for 2 min, washed three times in PBS by centrifugation at 200 × g, and filtered using 70-μm cell strainers (BD Falcon). Cell viability prior to screen was assessed using a trypan blue assay and confirmed to be >80%. Cells were diluted to 1.5E6 cells/mL. Expression of GFP-αSN and the αSN biosensors were confirmed by fluorescence microscopy prior to each screen (EvosFL-Auto microscope, Thermo Fisher Scientific, USA). During screening, cells (50 μL/well for 384-well; 10 μL/well for 1536-well) were dispensed by a Multidrop Combi liquid dispenser (Thermo, Pittsburg, PA, USA) into the assay plates containing the compounds and allowed to incubate at RT for 90 min before recording with the FLT-PR or SUPR (both instruments manufactured by Fluorescence Innovations Inc., both owned and provided by Photonic Pharma LLC), as described previously[46].
Interfering compounds were flagged as potential false positives by a set of stringent FC filters based on spectral analysis of each well from the LOPAC screen[45],[46]. After removal of FCs, a histogram of the FLT distribution from all compounds in the screen was plotted and fit to a Gaussian curve to obtain the mean (µ) and SD (σ). A hit was defined as a compound that attenuated the FLT efficiency by >5σ relative to the mean µ (Supplementary Fig. 12).

[6] = test system: differentiated SH-SY5Y cells treated with sonicated human αSN PFF; test: Differentiated SH-SY5Y cell model of αSN PFF pathology (pS129 immunoblot); format: cell-based; settings: 50 μM Baicalin, 200 nM human PFF, 48 h
Procedure: SH-SY5Y cells were differentiated using reduced serum (3%) media supplemented with 10 μM retinoic acid for 3 days and then changed to serum-free media supplemented with 10 ng/mL brain-derived neurotrophic factor for the remainder of the experiment. Stock αSN PFFs were diluted and sonicated as described previously. SH-SY5Y cultures were then treated with 200 nM PFF and PBS, DMSO, 1 μM drug compound (RO, BAY, or DEM), or 50 μM Baicalin. After 48 h, SH-SY5Y were washed with PBS and harvested in cold lysis buffer with protease and phosphatase inhibitors, as previously described. Approximately 15 μg of total protein was loaded onto a 4–20% Criterion TGX midi gel and probed using Syn1 (BD Biosciences, #610787; 1° 1:5000; 2° 1:10K) and pS^129 aSyn (abcam, ab59264; 1° 1:1000; 2° 1:5000) and a-tubulin (abcam, ab4074; 1° 1:1000; 2° 1:10K) page 19: Supplemental Figure 18. […] Differentiated SH-SY5Y cells were treated with PBS, vehicle (DMSO) or compounds with and without 200nM sonicated human αSN PFFs. […] These will be removed in subsequent densitometry analysis. (b) Replicates of PFF +/- compound treatment were ran for immunoblot analysis of pS129 immunoreactivity. (c) Densitometry analysis was performed using ImageLab from BioRad. Total pS129 signal (excluding the non- specific bands) was normalized to tubulin loading control. […] Quantification is normalized per lane to highlight change in the ratio of different species. Note, oligomers quantification is plotted relative to the right-y- axis. All statistical comparisons were to DMSO treatment using two-tailed t-test with * p<0.05; ** p<0.01; *** p<0.005.

[7] = test system: SH-SY5Y cells overexpressing unlabeled wild-type (WT) αSN; test: CytoTox-Glo cytotoxicity assay: rescue of αSN-induced cytotoxicity; format: cell-based, human
Procedure: Hit compounds were evaluated for rescue of αSN-induced cytotoxicity in using an SH-SY5Y neuroblastoma cell model of alpha-synucleinopathy[18],[69]–[72]. […] A seven-point CRC for RO, BAY, DEM, and Anle138b (positive control compound[41],[73]) was performed to determine IC50 for each compound. […]
Cell cytotoxicity was measured using the CytoTox-Glo (Promega Corporation) Luminescence Assay Kit. SH-SY5Y human neuroblastoma cells were plated at a density of 5 × 10^6 cells/plate in 100 mm plate (Corning) and transfected with unlabeled WT αSN or equivalent vector-only control for 24 h. The transfected cells were then plated at a density of 5000 cells/well in white solid 96-well plate (Corning) with a total volume of 100 μL, followed by treatment with hit compounds spanning a range of concentrations (0.1 nM to 100 μM), as well as DMSO-only controls, for another 48 h. After incubation, 50 μL of CytoTox-Glo Cytotoxicity Assay Reagent was added to all wells followed by mixing by orbital shaking and incubation in the dark for 15 min at RT. Luminescence readings were measured using a Cytation3 Cell Imaging Multi-Mode Reader luminometer (BioTek). After the first read, 50 μL of Lysis Reagent was added, incubated for 15 min at RT, and a second read performed. Total viable cellular luminance was determined by the difference between the first and second luminescence signal and total cellular viability is determined by normalizing to the no-treatment samples.

αSN oligomerization = test system: αSN oligomerization; parameters: method as in PMID 23604588; settings: read-out: apparent EC50, inhibition of αSN oligomerization; cited from earlier work

O=C(O[C@@H]1Cc2c(O)cc(O)cc2O[C@@H]1c1cc(O)c(O)c(O)c1)c1cc(O)c(O)c(O)c1 [EGCG]
IC50 [1]: 1100 nM
FLT trend in dose response [2]: reduced donor FLT
FLT trend in dose response [3]: reduced donor FLT
change in intra-protomeric FRET [4]: reduced FRET
ThT signal of αSN oligomers (αSN oligomers): complete loss of ThT signal

N#C/C(=C\c1ccc(-c2cc(Cl)ccc2Cl)o1)C(=O)Nc1cccc2ncccc12 [AGK2]
identified as hit in the LOPAC screen [5]: identified

O=C1Nc2cc(Br)ccc2/C1=C1/Nc2ccccc2/C1=N\O [Bio]
identified as hit in the LOPAC screen [5]: identified

O=C(O)[C@H]1O[C@@H](Oc2cc3oc(-c4ccccc4)cc(=O)c3c(O)c2O)[C@H](O)[C@@H](O)[C@@H]1O [Baicalin]
IC50 [1]: 387 nM
HMW pS129 signal [6]: strong HMW pS^129 signal
LMW oligomer pS129 fraction [6]: significantly reduced
ThT signal of αSN oligomers (αSN oligomers): complete loss of ThT signal

SB206553
rescue of αSN-induced cytotoxicity ([7]; dose response, 48-h exposure): no observed effect on cytotoxicity
rescue of toxicity in three-dose preliminary screen ([7]; three-dose assay): no rescue of toxicity
effect on seeded aggregation ([1]; titration up to 50 μM): no aggregation inhibition; also recorded: little to no effect on aggregation
FLT trend in dose response [2]: increasing FLT trend; also recorded: mild recovery of FLT
FLT trend in dose response [3]: increasing FLT trend; also recorded: mild recovery of FLT

Brc1cccc(-c2cc(-c3ccc4c(c3)OCO4)[nH]n2)c1 [Anle138b]
EC50 ([7]; Homo sapiens, SH-SY5Y, 72-h transfection, 48-h exposure to compound, seven-point CRC, read-out: EC50, protection of SH-SY5Y cells from αSN-induced death): 900 nM
EC50 (αSN oligomerization): 2800 nM

Cn1c(=O)c(-c2c(Cl)cccc2Cl)cc2cnc(Nc3ccc(N4CCOCC4)cc3)nc21 [PD173952]
identified as hit in the LOPAC screen [5]: identified
